Measured values from ChEMBL document CHEMBL5506053, “Explorations of Agonist Selectivity for the α9* nAChR with Novel Substituted Carbamoyl/Amido/Heteroaryl Dialkylpiperazinium Salts and Their Therapeutic Implications in Pain and Inflammation” (J Med Chem, 2024).
Active and inactive are the calls of the source.

Experiments:
[1] = target: Neuronal acetylcholine receptor subunit alpha-9 (Homo sapiens, UniProt Q9UGM1); experiment: Agonist activity at human alpha9 nAChR expressed as xenopus laevis oocytes assessed as increase in receptor desensitization by measuring fold change in maximum response (Imax) measured after 120 secs by two-electrode voltage-clamp electrophysiology method relative to acetylcholine; format: cell-based; conditions: Oocyte, filed as agonist, time 120.0 sec
[2] = target: Neuronal acetylcholine receptor; alpha9/alpha10 (Homo sapiens) (UniProt Q9UGM1+Q9GZZ6); experiment: Agonist activity at human alpha9alpha10 nAChR expressed as xenopus laevis oocytes assessed as increase in receptor desensitization by measuring fold change in maximum response (Imax) measured after 120 secs by two-electrode voltage-clamp electrophysiology method relative to acetylcholine; format: cell-based; conditions: Oocyte, filed as agonist, time 120.0 sec
[3] = target: T1, Neuronal acetylcholine receptor subunit alpha-7 (Homo sapiens, UniProt P36544); experiment: (§1) Agonist activity at human alpha7 nAChR expressed as xenopus laevis oocytes assessed as increase in receptor desensitization by measuring fold change in maximum response (Imax) measured after 120 secs by two-electrode voltage-clamp electrophysiology method relative to acetylcholine; format: cell-based; conditions: Oocyte, filed as agonist, time 120.0 sec
[4] = target: T1, Neuronal acetylcholine receptor subunit alpha-7; experiment: as §1, with “peak current” for “maximum”, “at 30 uM incubated for” for “(Imax) measured after”, “secs presence of PNU-120596” for “secs”; format: cell-based; conditions: Oocyte, filed as agonist, time 120.0 sec
[5] = target: T2, Neuronal acetylcholine receptor; alpha4/beta2 (Homo sapiens) (UniProt P17787+P43681); experiment: Agonist activity at human alpha4beta2 nAChR expressed in xenopus laevis oocytes at 30 uM measured after 120 secs by two-electrode voltage-clamp electrophysiology method relative to control; format: cell-based; conditions: Oocyte, time 120.0 sec
[6] = target: T3, Neuronal acetylcholine receptor; alpha3/beta4 (Homo sapiens) (UniProt P30926+P32297); experiment: Agonist activity at human alpha3beta4 nAChR expressed in xenopus laevis oocytes at 100 uM measured after 120 secs by two-electrode voltage-clamp electrophysiology method relative to control; format: cell-based; conditions: Oocyte, time 120.0 sec
Oocyte [7] = experiment: Agonist activity at mouse muscle alpha1beta1epsilondelta nAChR expressed in xenopus laevis oocytes at 30 uM measured after 120 secs by two-electrode voltage-clamp electrophysiology method relative to control; format: cell-based; conditions: time 120.0 sec
[8] = target: T3, Neuronal acetylcholine receptor; alpha3/beta4 (Homo sapiens); experiment: (§2) Inhibition of acetylcholine induced response in human alpha3beta4 nAChR expressed in xenopus laevis oocytes assessed as fold change at 100 uM preincubated with 3 uM acetylcholine followed by compound administration for 12 sec and measured 181 sec post washout by two-electrode voltage-clamp electrophysiology method relative to acetylcholine alone; format: cell-based; conditions: Oocyte
[9] = target: T2, Neuronal acetylcholine receptor; alpha4/beta2 (Homo sapiens); experiment: as §2, with “alpha4beta2” for “alpha3beta4”, “30” for “100”; format: cell-based; conditions: Oocyte
Oocyte [10] = experiment: as §2, with “mouse muscle alpha1beta1epsilondelta” for “human alpha3beta4”, “30” for “100”; format: cell-based
THP-1 [11] = experiment: Induction of IL-1beta release in LPS primed monocytic human THP-1 cells at 10 uM primed with LPS for 5 hrs followed by compound addition and further incubated for 40 mins by ELISA; format: functional, cell-based
THP-1 [12] = experiment: Cytotoxicity against monocytic human THP-1 cells assessed as effect on lactate dehydrogenase activity in supernatant; format: toxicity, cell-based
[13] = Metabolic stability in pooled BALB/c mouse plasma at 1 uM measured after 0 to 120 mins by UPLC-MS/MS analysis; format: ADME, cell-free; conditions: time 0-120 min
[14] = Plasma protein binding in human; format: ADME, cell-free
[15] = Apparent permeability across apical to basolateral side in human Caco-2 cells at pH 5 at 5 ug/ml measured after 2 hrs by UPLC-MS/MS analysis; format: ADME, cell-based; conditions: caco-2, pH 5, 2 h, dose 5 µg/ml
[16] = Apparent permeability across apical to basolateral side in human Caco-2 cells at pH 6.8 at 5 ug/ml measured after 2 hrs by UPLC-MS/MS analysis; format: ADME, cell-based; conditions: caco-2, pH 6.8, 2 h, dose 5 µg/ml
[17] = Apparent permeability across apical to basolateral side in human Caco-2 cells at pH 7.4 at 5 ug/ml measured after 2 hrs by UPLC-MS/MS analysis; format: ADME, cell-based; conditions: caco-2, pH 7.4, 2 h, dose 5 µg/ml
[18] = Apparent permeability across basolateral to apical side in human Caco-2 cells at pH 5 at 5 ug/ml measured after 2 hrs by UPLC-MS/MS analysis; format: ADME, cell-based; conditions: caco-2, pH 5, 2 h, dose 5 µg/ml
[19] = Apparent permeability across basolateral to apical side in human Caco-2 cells at pH 6.8 at 5 ug/ml measured after 2 hrs by UPLC-MS/MS analysis; format: ADME, cell-based; conditions: caco-2, pH 6.8, 2 h, dose 5 µg/ml
[20] = Apparent permeability across basolateral to apical side in human Caco-2 cells at pH 7.4 at 5 ug/ml measured after 2 hrs by UPLC-MS/MS analysis; format: ADME, cell-based; conditions: caco-2, pH 7.4, 2 h, dose 5 µg/ml
[21] = Metabolic stability in pooled BALB/c mouse plasma assessed as compound remaining at 1 uM measured after 0 to 120 mins by UPLC-MS/MS analysis; format: ADME, cell-free; conditions: time 0-120 min
Mus musculus [22] = experiment: Antinociceptive activity in complete freund's adjuvant induced inflammatory pain in C57BL/6J mouse model assessed as increase in mechanical pain threshold at 10 mg/kg, ip pretreated with CFA for 3 days followed by compound treatment and measured after 1 to 24 hrs; format: functional, organism-based; conditions: time 1-24 hrs
Mus musculus [23] = experiment: Antinociceptive activity in complete freund's adjuvant induced inflammatory pain in C57BL/6J mouse model assessed as increase in mechanical pain threshold at 2 mg/kg, ip pretreated with CFA for 3 days followed by compound treatment and measured after 6 to 24 hrs; format: functional, organism-based; conditions: time 6-24 hrs
Mus musculus [24] = experiment: Antinociceptive activity in complete freund's adjuvant induced inflammatory pain in C57BL/6J mouse model assessed as increase in mechanical pain threshold at 10 mg/kg, ip pretreated with CFA for 3 days followed by compound treatment and measured after 5 days; format: functional, organism-based; conditions: time 5.0 day
Mus musculus [25] = experiment: Antinociceptive activity in complete freund's adjuvant induced inflammatory pain in C57BL/6J mouse model assessed as increase in mechanical pain threshold at 10 mg/kg, ip pretreated with CFA for 3 days followed by compound treatment and measured after 72 hrs; format: functional, organism-based
Mus musculus [26] = experiment: Antinociceptive activity in sham-treated C57BL/6J mouse model assessed as effect on von Frey response at 10 mg/kg, ip measured after 5 days; format: functional, organism-based; conditions: time 5.0 day
[27] = Toxicity in C57BL/6J mouse assessed as effect on locomotor activity at 10 mg/kg, ip measured after 6 hrs; format: organism-based; conditions: in vivo
Mus musculus [28] = experiment: Antinociceptive activity in complete freund's adjuvant induced inflammatory pain in C57BL/6J mouse model harboring wild type alpha7 nAChR assessed as increase in mechanical pain threshold at 10 mg/kg, ip pretreated with CFA for 3 days followed by compound treatment and measured after 6 hrs; format: functional, organism-based
Mus musculus [29] = experiment: Antinociceptive activity in complete freund's adjuvant induced inflammatory pain in alpha7 nAChR knockout C57BL/6J mouse model assessed as increase in mechanical pain threshold at 10 mg/kg, ip pretreated with CFA for 3 days followed by compound treatment and measured after 6 hrs; format: functional, organism-based
Mus musculus [30] = experiment: Antiinflammatory activity in CFA-treated C57BL/6J mouse model assessed as reduction in paw edema at 10 mg/kg, ip measured after 6 hrs
[31] = target: T1, Neuronal acetylcholine receptor subunit alpha-7; experiment: Partial agonist activity at human alpha7 nAChR expressed as xenopus laevis oocytes assessed as increase in receptor desensitization by measuring fold change in maximum response (Imax) measured after 120 secs by two-electrode voltage-clamp electrophysiology method relative to acetylcholine; format: cell-based; conditions: Oocyte, filed as partial agonist, time 120.0 sec
PBMC [32] = experiment: Inhibition of ATP-mediated IL-1beta release in LPS primed BzATP induced human PBMC cells at 100 fM primed with LPS for 3 hrs followed by BzATP and compound addition for 30 mins by ELISA; format: functional, cell-based
PBMC [33] = experiment: Inhibition of ATP-mediated IL-1beta release in LPS primed BzATP induced human PBMC cells at 100 uM primed with LPS for 3 hrs followed by BzATP and compound addition for 30 mins by ELISA; format: functional, cell-based
Mus musculus [34] = experiment: Antinociceptive activity in complete freund's adjuvant induced inflammatory pain in C57BL/6J mouse model assessed as increase in mechanical pain threshold at 20 mg/kg, ip pretreated with CFA for 3 days followed by compound treatment and measured after 1 to 72 hrs; format: functional, organism-based; conditions: time 1-72 hrs
Mus musculus [35] = experiment: Antinociceptive activity in sham-treated C57BL/6J mouse model assessed as effect on von Frey response at 20 mg/kg, ip measured after 1 to 72 hrs; format: functional, organism-based; conditions: time 1-72 hrs
[36] = Toxicity in C57BL/6J mouse assessed as effect on locomotor activity at 20 mg/kg, ip measured after 6 hrs; conditions: in vivo
Mus musculus [37] = experiment: Antiinflammatory activity in CFA-treated C57BL/6J mouse model assessed as reduction in paw edema at 20 mg/kg, ip measured after 6 hrs

T1 sequence (P36544 whole entry): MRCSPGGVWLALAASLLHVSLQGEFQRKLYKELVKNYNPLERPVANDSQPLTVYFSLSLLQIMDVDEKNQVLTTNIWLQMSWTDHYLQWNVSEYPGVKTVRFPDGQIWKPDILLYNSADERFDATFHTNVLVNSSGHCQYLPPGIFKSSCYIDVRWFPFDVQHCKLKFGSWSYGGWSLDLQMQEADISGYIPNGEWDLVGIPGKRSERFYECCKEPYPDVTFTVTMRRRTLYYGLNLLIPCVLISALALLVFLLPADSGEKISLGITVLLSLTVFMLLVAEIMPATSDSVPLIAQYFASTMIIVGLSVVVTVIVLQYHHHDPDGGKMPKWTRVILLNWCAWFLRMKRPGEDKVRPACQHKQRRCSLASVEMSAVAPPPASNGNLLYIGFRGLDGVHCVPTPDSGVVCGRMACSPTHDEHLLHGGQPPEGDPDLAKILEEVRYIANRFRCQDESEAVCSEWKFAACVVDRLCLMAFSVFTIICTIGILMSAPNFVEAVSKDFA
Neuronal acetylcholine receptor subunit alpha-9, sequence (Q9UGM1 whole entry): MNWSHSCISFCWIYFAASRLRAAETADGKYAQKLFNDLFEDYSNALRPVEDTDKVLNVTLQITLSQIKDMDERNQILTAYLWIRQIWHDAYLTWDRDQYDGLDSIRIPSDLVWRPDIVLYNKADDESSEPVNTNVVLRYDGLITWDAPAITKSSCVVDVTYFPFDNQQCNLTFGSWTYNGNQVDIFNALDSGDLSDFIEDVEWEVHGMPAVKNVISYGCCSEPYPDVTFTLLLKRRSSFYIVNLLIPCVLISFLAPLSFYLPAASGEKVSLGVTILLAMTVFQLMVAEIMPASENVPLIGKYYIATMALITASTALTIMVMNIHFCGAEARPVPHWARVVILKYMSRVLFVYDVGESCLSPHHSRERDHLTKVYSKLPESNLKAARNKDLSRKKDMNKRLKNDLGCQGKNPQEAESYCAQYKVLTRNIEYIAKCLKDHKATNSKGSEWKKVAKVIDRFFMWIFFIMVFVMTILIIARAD

Q: What does the source list for `CC[N+]1(C)CCN(c2ccc(NC(=O)c3cccc(C)n3)cc2)CC1.[I-]`?
A: fold change (FC) [1]: 1.01; fold change (FC) [2]: 1.04; fold change (FC) [3]: 0.41; fold change (FC) [4]: 111; Activity [5]: < 1%; Activity [6]: < 1%; Activity (Oocyte [7]): < 1%; fold change (FC) [8]: 0.659; fold change (FC) [9]: 1.05; fold change (FC) (Oocyte [10]): 0.558; Activity (THP-1 [11]): inactive; Activity (THP-1 [12]): Non-Toxic; Stability [13]: Stable; PPB [14]: 54%; Papp [15]: 2.5 10^-6 cm/s; Papp [16]: 2.8 10^-6 cm/s; Papp [17]: 2.4 10^-6 cm/s; Papp [18]: 2.9 10^-6 cm/s; Papp [19]: 3 10^-6 cm/s; Papp [20]: 3.1 10^-6 cm/s; Stability [21]: > 90%; Activity (Mus musculus [22]): Active; Activity (Mus musculus [23]): Active; Activity (Mus musculus [24]): Active; Activity (Mus musculus [25]): inactive; Activity (Mus musculus [26]): inactive; Activity [27]: Non-Toxic; Activity (Mus musculus [28]): Active; Activity (Mus musculus [29]): Active; Activity (Mus musculus [30]): Active

Q: Which fold change (FC) [1] does the source give for `CC[N+]1(C)CCN(c2ccc(C(=O)Nc3cccc(C)n3)cc2)CC1.[I-]` here?
A: The fold change (FC) was 1.19.

Q: What about the fold change (FC) [2] of the same molecule?
A: Its fold change (FC) is 0.92.

Q: And the fold change (FC) [31]?
A: Its fold change (FC) is 0.4.

Q: And the fold change (FC) [4]?
A: The fold change (FC) was 0.13.

Q: And the Activity [5]?
A: The Activity was under 1%.

Q: And the Activity [6]?
A: Its Activity is under 1%.

Q: And the Activity (Oocyte [7])?
A: The Activity was under 1%.

Q: What about the fold change (FC) [8] of the same molecule?
A: The fold change (FC) was 0.849.

Q: What about the fold change (FC) [9] of the same molecule?
A: Its fold change (FC) is 0.858.

Q: What about the fold change (FC) (Oocyte [10]) of the same molecule?
A: Its fold change (FC) is 0.413.

Q: And the Activity (THP-1 [11])?
A: Its Activity is “inactive”.

Q: And the Activity (THP-1 [12])?
A: Its Activity is “Non-Toxic”.

Q: What about the inhibition (PBMC [32]) of the same molecule?
A: The inhibition was “Active”.

Q: And the inhibition (PBMC [33])?
A: The inhibition was “inactive”.

Q: What about the Stability [13] of the same molecule?
A: The Stability was “Stable”.

Q: What about the PPB [14] of the same molecule?
A: The PPB was 32%.

Q: And the Papp [15]?
A: The Papp was 1.9 10^-6 cm/s.

Q: What about the Papp [16] of the same molecule?
A: The Papp was 2.2 10^-6 cm/s.

Q: What about the Papp [17] of the same molecule?
A: The Papp was 2.2 10^-6 cm/s.

Q: And the Papp [18]?
A: The Papp was 1.9 10^-6 cm/s.

Q: What about the Papp [19] of the same molecule?
A: Its Papp is 2.6 10^-6 cm/s.

Q: What about the Papp [20] of the same molecule?
A: The Papp was 2.9 10^-6 cm/s.

Q: What about the Stability [21] of the same molecule?
A: Its Stability is over 90%.

Q: And the Activity (Mus musculus [34])?
A: Its Activity is “Active”.

Q: And the Activity (Mus musculus [35])?
A: Its Activity is “inactive”.

Q: What about the Activity [36] of the same molecule?
A: The Activity was “Non-Toxic”.

Q: And the Activity (Mus musculus [37])?
A: The Activity was “Active”.
